Reference: patent US20180110757A1, “METHODS OF TREATING PRURITIS AND PAIN” (The Regents of the University of California, priority 2016, published 2018)

Assays:
[1] = tested on: KCNQ2/3 potassium channels (M channels); assay: Excitability of mechanical nociceptor DRG neurons in vitro; format: cell-based; conditions: via S1PR3, through closure of KCNQ2/3 potassium channels
Excerpt: In situ RNA hybridization studies and protein localization studies indicate that S1pr3 is expressed in thermal nociceptors and mechanical nociceptors, as well as nociceptive free nerve endings in skin.

S1PR3 = molecular target: T1, S1PR3 (Mus musculus, UniProt Q9Z0U9); assay: Ratiometric calcium imaging in cultured DRG neurons; format: cell-based, mice; conditions: for calcium responses in cultured DRG neurons: S1P 100 nM, CYM 100 μM
T1 construct: attenuates S1P-evoked calcium responses in wild-type DRG sensory neurons; endogenous in cells; host or cells: cultured mouse dorsal root ganglion (DRG) neurons, wild-type
Procedure: FIG. 1A-1G. A. Graphical model illustrating the role of S1PR3-evoked itch in somatosensory neurons of the dorsal root ganglion (DRG). […] C. […] D. Venn diagram displaying overlap of S1P responsive neurons from ratiometric calcium imaging with known pruritogens and algogens in cultured DRG neurons. Pruritogens: HIS=histamine, CQ=chloroquine. Algogens: CAP=capsaicin, AITC=allyl-isothiocyanate. Data were collected from n>4,000 neurons. E. Scratching behavioral data for mice injected with 200 nM S1P or 0.1% methanol-PBS vehicle intradermally into the rostral back. WT=wild-type, A1 −/−=Trpa1-deficient knockout mice. Scratching behaviors were recorded 30 minutes post injection. […] G. S1pr3 transcript levels were quantified using qRT-PCR from skin of mice treated with vitamin D or ethanol control for 7 days to induce an atopic dermatitis-like condition. Data were normalized to Gapdh housekeeping gene. For all data, one way ANOVA was performed with a Tukey-Kramer post hoc statistical test. Tukey-Kramer values are reported and only p<0.05 were considered significant, ***=p<0.001. n.s.=not significant.

mice = assay: Scratching behavior after intradermal injection into the rostral back; format: in vivo
wild-type mice [2] = assay: Mechanical pain sensitivity (von Frey, tactile stimuli) in healthy wild-type mice; format: in vivo
Excerpt: Likewise, in S1pr3^−/− mice, radiant heat withdrawal latencies were normal.
Pharmacological manipulation of S1PR3 or reduction of S1P levels lessens mechanical pain sensation in wild-type mice without affecting innocuous touch.
Blockade of S1PR1 with the selective antagonist W146 has no effect on mechanosensitivity. Tonic levels of S1P in the skin are responsible for S1PR3-mediated mechanical pain sensation.

wild-type mice [3] = assay: Complete Freund's Adjuvant (CFA) model of chronic inflammation; format: in vivo
Excerpt: S1PR3 knockout mice treated with CFA fail to develop thermal hypersensitivity and display normal mechanical sensitivity due to their baseline defect in mechanical pain sensation. They also display lessened paw swelling, possibly due to decreased neurogenic inflammation. […] Loss of S1P production with acute SKI II injection into the CFA-treated paw also reverses CFA thermal hypersensitivity.

[4] = S1PR3-deficient (S1PR3 −/−) mice
[5] = wildtype mice (WT), compared to physiological saline control
[6] = wild-type mice, intradermal administration
[7] = wild-type mice, delivered to the hindpaw after induction of CFA pain

T1 sequence (Q9Z0U9 whole entry): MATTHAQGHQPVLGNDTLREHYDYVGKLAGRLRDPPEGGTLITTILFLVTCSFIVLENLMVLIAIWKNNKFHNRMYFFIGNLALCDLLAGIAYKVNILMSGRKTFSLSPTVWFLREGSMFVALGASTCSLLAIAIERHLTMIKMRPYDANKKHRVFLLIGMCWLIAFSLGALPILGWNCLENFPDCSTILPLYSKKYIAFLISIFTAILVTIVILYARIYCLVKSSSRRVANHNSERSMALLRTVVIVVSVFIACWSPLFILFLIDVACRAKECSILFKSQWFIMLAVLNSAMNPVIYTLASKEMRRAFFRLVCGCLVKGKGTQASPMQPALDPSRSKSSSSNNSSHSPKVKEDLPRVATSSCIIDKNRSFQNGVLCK

CCCCCCCCCCCCC/C=C/[C@@H](O)[C@@H](N)COP(=O)(O)O [S1P, Sphingosine-1-phosphate]
excitability of mechanical nociceptor DRG neurons [1]: increases the excitability
calcium responses in cultured DRG neurons (S1PR3; [4]): lack calcium responses
calcium responses in cultured DRG neurons (S1PR3; [5]): robust responses
scratching behavior vs. vehicle (mice; S1PR3-deficient mice (S1PR3 −/−), 200 nM intradermally, 30 minutes post injection): no difference
scratching behavior (mice; mice (FIG. 1E), S1PR3-dependent opening of TRPA1): leads to scratching behavior in mice

Oc1ccc(Nc2nc(-c3ccc(Cl)cc3)cs2)cc1 [SKI II, 2-(p-hydroxyanilino)-4-(p-chlorophenyl)thiazole]
mechanical pain sensitivity after block of local production of S1P (wild-type mice [2]; injection of 50 μM): mechanical pain sensitivity was dependent on local S1P in the skin
CFA thermal hypersensitivity (wild-type mice [3]; acute injection into the CFA-treated paw): reverses

CC(C)(C)C(=O)C(=Nc1ccc(Cl)cc1)NNc1ccc(Cl)cc1 [TY 52156, N-(4-Chlorophenyl)-3,3-dimethyl-2-oxobutanimidic 2-(4-chlorophenyl) hydrazide]
mechanosensitivity (wild-type mice [2]; [6]): promotes mechanical hyposensitivity
responsiveness to noxious tactile stimuli (wild-type mice [2]; [6]): decreases responsiveness
mechanical thresholds (wild-type mice [3]; [7]): to pre-CFA, baseline levels
thermal thresholds (wild-type mice [3]; [7]): to pre-CFA, baseline levels
effect on S1P-evoked calcium responses (S1PR3; wild-type DRG sensory neurons): attenuates
effect on the effects of the allosteric agonist CYM (calcium imaging) (S1PR3; wild-type DRG sensory neurons): does not block

CCCCCCc1cccc(NC(=O)[C@H](N)CCP(=O)(O)O)c1 [W146]
mechanosensitivity (wild-type mice [2]; [6]): no effect

O=C(c1cc(C2CC2)on1)N(C1CCCCC1)C1CCCCC1 [CYM 5541]
calcium responses in cultured DRG neurons (S1PR3; [4]): lack calcium responses
calcium responses in cultured DRG neurons (S1PR3; [5]): robust responses
